“Also recorded” adds a separate entry of the source.
Tests used:
Assay type in all cases: cell-based
[1] = tested on: primary human regulatory T cells; test: In vitro suppression of the proliferation of CD4+ T cells by expanded Treg cells; conditions: five independent donors, vs DMSO, FIG. 3
Description: (§1) Human buffy coats were obtained from BioreclamationIVT, in the USA. CD4+ T cells were isolated from said buffy coats using the RosetteSep Human CD4+ T cell enrichment Cocktail (Stemcell technologies, USA) and gradient centrifugation over Ficoll Paque Plus (GE HealthCare LifeSciences, USA) as per manufacturer's recommendations. Cells were resuspended in RPMI medium supplemented with 1% penicillin-Streptomycin solution, 10% Fetal Bovine Serum, HEPES (10 mM), MEM NEAA ([…]), sodium pyruvate (1 mM) (all supplements from Thermo Fisher Scientific, USA), thereafter referred to as complete RPMI (cRPMI), and rested overnight at 37° C., 5% CO2 in the presence of 2 U/mL rhIL-2 (Proleukin, Novartis). Cells were collected and resuspended in autoMACS Running Buffer supplemented with BSA (Miltenyi Biotec, USA) and labelled using CD4-FITC antibody (clone RPA-T4), CD25-APC antibody (clone M-A251) (Biolegend) and CD25 Microbeads (Miltenyi Biotec, USA). CD25-enriched cells were then isolated using the autoMACS Pro Separator. […]
Primary human PBMCs were obtained from freshly prepared buffy coats (BioReclamationIVT) using gradient centrifugation over Ficoll Paque Plus as per manufacturer's recommendations. […] Proliferation was assessed in each population as the proportion of cells having diluted CFSE. Suppression was assessed for each condition in comparison to the responders plated alone.

GSPT1 = GSPT1 (Homo sapiens, UniProt P15170+Q96SW2); test: Prolabel quantification of GSPT1 protein levels in 293GT cells; conditions: Prolabel assay, read-out: GSPT1 EC50
Sequence of GSPT1 (P15170 whole entry): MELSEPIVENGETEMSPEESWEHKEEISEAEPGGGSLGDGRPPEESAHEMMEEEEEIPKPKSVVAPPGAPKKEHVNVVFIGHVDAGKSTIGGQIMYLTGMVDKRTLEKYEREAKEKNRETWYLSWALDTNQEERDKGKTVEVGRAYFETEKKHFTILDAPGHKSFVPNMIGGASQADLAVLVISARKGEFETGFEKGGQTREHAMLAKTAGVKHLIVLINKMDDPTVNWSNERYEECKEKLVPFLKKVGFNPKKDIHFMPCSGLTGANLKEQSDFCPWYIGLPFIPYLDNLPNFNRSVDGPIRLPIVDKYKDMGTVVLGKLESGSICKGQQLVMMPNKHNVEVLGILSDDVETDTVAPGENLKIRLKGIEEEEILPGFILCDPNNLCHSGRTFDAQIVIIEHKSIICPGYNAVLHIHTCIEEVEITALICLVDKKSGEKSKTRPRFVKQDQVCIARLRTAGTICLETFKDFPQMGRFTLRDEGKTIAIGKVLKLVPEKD
Sequence of GSPT1 (Q96SW2 whole entry): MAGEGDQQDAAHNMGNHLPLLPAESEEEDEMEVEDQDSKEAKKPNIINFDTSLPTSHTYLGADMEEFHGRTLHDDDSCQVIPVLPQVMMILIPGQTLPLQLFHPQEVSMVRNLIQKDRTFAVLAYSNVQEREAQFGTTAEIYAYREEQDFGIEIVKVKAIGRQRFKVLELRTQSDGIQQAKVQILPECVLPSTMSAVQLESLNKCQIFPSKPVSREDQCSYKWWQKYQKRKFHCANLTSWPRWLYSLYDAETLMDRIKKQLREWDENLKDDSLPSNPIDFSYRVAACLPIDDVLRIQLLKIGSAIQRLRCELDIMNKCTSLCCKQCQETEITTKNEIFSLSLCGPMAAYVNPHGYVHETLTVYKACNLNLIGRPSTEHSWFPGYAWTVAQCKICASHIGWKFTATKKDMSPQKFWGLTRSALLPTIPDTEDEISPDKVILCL
Sequence of GSPT1 (Q16531 whole entry partner): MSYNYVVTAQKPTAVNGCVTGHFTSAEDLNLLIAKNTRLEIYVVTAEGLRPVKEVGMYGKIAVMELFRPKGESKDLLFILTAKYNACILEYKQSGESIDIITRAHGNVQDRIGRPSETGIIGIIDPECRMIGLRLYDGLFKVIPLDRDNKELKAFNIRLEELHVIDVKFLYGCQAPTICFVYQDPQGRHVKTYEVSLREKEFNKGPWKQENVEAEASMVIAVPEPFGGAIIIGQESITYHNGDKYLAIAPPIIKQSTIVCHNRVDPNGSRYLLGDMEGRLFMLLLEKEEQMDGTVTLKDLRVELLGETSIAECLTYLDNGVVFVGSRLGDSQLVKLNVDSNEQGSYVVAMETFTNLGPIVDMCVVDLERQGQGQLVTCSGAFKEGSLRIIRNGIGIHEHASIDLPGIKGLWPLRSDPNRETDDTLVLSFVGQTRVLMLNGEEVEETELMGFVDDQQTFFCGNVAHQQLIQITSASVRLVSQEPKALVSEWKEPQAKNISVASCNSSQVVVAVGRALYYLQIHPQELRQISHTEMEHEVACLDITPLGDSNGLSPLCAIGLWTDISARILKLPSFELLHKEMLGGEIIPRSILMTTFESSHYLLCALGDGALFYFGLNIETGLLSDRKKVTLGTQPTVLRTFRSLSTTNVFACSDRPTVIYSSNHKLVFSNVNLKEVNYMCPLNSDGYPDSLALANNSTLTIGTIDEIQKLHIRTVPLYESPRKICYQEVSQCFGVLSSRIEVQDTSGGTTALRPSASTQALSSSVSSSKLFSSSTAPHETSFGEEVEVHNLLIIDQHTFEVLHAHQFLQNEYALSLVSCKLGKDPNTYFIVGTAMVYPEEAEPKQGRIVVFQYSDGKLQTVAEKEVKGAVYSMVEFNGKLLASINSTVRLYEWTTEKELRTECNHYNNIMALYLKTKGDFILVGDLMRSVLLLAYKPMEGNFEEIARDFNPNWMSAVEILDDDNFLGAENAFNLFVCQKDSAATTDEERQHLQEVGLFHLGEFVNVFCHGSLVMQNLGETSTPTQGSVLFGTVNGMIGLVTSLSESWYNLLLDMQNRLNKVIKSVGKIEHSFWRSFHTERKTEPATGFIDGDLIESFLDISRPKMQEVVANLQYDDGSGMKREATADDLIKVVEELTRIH

IKZF1 = IKZF1 (Homo sapiens, UniProt Q13422+Q96SW2); test: Prolabel quantification of IKZF1 protein levels in 293GT cells; conditions: Prolabel assay, read-out: IKZF1 EC50
Sequence of IKZF1 (Q13422 whole entry): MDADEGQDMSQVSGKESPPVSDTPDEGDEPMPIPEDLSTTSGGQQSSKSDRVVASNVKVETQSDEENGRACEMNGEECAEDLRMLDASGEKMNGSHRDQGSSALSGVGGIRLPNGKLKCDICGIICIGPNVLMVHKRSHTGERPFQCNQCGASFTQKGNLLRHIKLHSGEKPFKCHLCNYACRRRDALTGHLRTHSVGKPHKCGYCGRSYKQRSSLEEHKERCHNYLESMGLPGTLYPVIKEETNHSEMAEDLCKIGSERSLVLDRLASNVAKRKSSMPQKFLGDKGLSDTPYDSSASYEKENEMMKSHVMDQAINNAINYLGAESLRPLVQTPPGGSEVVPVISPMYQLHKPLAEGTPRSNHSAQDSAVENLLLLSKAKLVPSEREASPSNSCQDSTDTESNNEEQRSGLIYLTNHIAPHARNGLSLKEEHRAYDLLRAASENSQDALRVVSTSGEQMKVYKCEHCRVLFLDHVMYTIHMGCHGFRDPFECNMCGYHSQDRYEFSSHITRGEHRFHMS
Sequence of IKZF1 (Q96SW2 whole entry): as the sequence (Q96SW2 whole entry) above
Sequence of IKZF1 (Q16531 whole entry partner): as the sequence (Q16531 whole entry partner) above

[2] = tested on: primary human regulatory T cells; test: Expansion of purified primary human Treg cells in the presence of compound; conditions: FIG. 1
Description: as §1, with “Separator. A highly purified population of Treg cells was then obtained by further sorting CD4+CD25Hi cells using a Sony SH800 cell sorter. The resulting Treg cell population was routinely above 90% pure according to FOXP3 expression.” for “Separator.”
Cell were collected and counted and the fold expansion was calculated as (number of cells recovered)/(number of cells plated). […]

[3] = tested on: primary human regulatory T cells
IKZF2 = IKZF2 (Homo sapiens, UniProt Q96SW2+Q9UKS7); test: Prolabel quantification of IKZF2 protein levels in 293GT cells
Sequence of IKZF2 (Q9UKS7 whole entry): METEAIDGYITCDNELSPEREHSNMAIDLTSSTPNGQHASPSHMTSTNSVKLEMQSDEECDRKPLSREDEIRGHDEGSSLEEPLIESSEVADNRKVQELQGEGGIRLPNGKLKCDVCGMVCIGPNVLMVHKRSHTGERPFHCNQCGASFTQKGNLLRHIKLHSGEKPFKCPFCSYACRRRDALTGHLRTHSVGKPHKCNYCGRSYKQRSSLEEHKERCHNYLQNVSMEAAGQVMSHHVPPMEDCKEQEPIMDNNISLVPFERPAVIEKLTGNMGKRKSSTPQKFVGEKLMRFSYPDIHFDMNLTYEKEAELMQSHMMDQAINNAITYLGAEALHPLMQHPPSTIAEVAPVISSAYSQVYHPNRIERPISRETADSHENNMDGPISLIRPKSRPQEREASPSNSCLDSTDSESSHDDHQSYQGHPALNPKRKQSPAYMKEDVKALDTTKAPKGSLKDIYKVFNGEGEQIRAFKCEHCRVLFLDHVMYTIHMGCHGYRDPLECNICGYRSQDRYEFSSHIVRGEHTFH
Sequence of IKZF2 (Q96SW2 whole entry): as the sequence (Q96SW2 whole entry) above
Sequence of IKZF2 (Q16531 whole entry partner): as the sequence (Q16531 whole entry partner) above

SMILES: O=C1CCC(N2Cc3cc(C4CCN(Cc5ccccc5)CC4)ccc3C2=O)C(=O)N1 (stereo not drawn) [Compound I-57, 3-(5-(1-benzylpiperidin-4-yl)-1-oxoisoindolin-2-yl)piperidine-2,6-dione]
- In vitro suppression of the proliferation of CD4+ T cells by expanded Treg cells [1]: impaired; also recorded: less able to repress
- DC50 (GSPT1): > 50 µM
- DC50 (IKZF1): > 50 µM
- Treg cells expand less in the presence of compound ([2]; expanded in vitro 12 days, vs DMSO, compound 10 μM): 30%
- Expansion of purified Treg cells as compared to the control ([2]; purified primary human Treg cells, DMSO control): impaired
- Increase of the proportion of cells producing IL-2 (median) [3]: 2.16 fold
- IKZF2 protein levels as compared to the control (DMSO) (IKZF2): decreased
- inhibition at 10 µM (IKZF2; 24 h, read-out: IKZF2 % protein reduction at 10 μM, 24 h): 70%
- DC50 (IKZF2; Prolabel assay, 293GT cells, read-out: IKZF2 EC50): 0.009 µM

From patent US11053218B2, “3-(1-oxoisoindolin-2-yl)piperidine-2,6-dione derivatives and uses thereof” (Novartis AG, priority 2017, dated 2021)
